Key:
Assay in all cases: cells
Format in all cases: functional, cell-based, Homo sapiens
[1] = system: SF-295; settings: Homo sapiens, SF-295;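 also: growth inhibition of SF-295 cells, read out with a cell viability assay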
Description: SANGER: Inhibition of human SF295 cell growth in a cell viability assay.

[2] = system: KYSE-180; settings: Homo sapiens, KYSE-180;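 also: growth inhibition of KYSE-180 cells, read out with a cell viability assay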
Description: SANGER: Inhibition of human KYSE-180 cell growth in a cell viability assay.

[3] = system: NCI-H520; settings: Homo sapiens, NCI-H520;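 also: growth inhibition of NCI-H520 cells, measured by a cell viability assay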
Description: SANGER: Inhibition of human NCI-H520 cell growth in a cell viability assay.

[4] = system: BHT-101; settings: Homo sapiens, BHT-101
Description: SANGER: Inhibition of human BHT-101 cell growth in a cell viability assay.

[5] = system: SW48; settings: Homo sapiens, SW48;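 also: growth inhibition of SW48 cells, read out with a cell viability assay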
Description: SANGER: Inhibition of human SW48 cell growth in a cell viability assay.

[6] = system: EFO-27; settings: Homo sapiens, EFO-27;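 also: growth inhibition of EFO-27 cells, read out with a cell viability assay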
Description: SANGER: Inhibition of human EFO-27 cell growth in a cell viability assay.

[7] = system: S-117; settings: Homo sapiens, S-117
Description: SANGER: Inhibition of human S-117 cell growth in a cell viability assay.

[8] = system: RO82-W-1; settings: Homo sapiens, RO82-W-1;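 also: growth inhibition of human RO82-W-1 cells, measured with a cell viability assay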
Description: SANGER: Inhibition of human RO82-W-1 cell growth in a cell viability assay.

[9] = system: 647-V; settings: Homo sapiens, 647-V;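 also: growth inhibition of 647-V cells, read out with a cell viability assay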
Description: SANGER: Inhibition of human 647-V cell growth in a cell viability assay.

[10] = system: ES3; settings: Homo sapiens, ES3;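 also: growth inhibition of ES3 cells, read out with a cell viability assay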
Description: SANGER: Inhibition of human ES3 cell growth in a cell viability assay.

[11] = system: MEL-HO; settings: Homo sapiens, MEL-HO
Description: SANGER: Inhibition of human MEL-HO cell growth in a cell viability assay.

[12] = system: LAMA-84; settings: Homo sapiens, LAMA-84;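 also: growth inhibition of LAMA-84 cells, read out with a cell viability assay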
Description: SANGER: Inhibition of human LAMA-84 cell growth in a cell viability assay.

[13] = system: COLO-824; settings: Homo sapiens, COLO-824
Description: SANGER: Inhibition of human COLO-824 cell growth in a cell viability assay.

[14] = system: RPMI-8226; settings: Homo sapiens, RPMI-8226
Description: SANGER: Inhibition of human RPMI-8226 cell growth in a cell viability assay.

[15] = system: SH-4; settings: Homo sapiens, SH-4;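 also: growth inhibition of SH-4 cells, read out with a cell viability assay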
Description: SANGER: Inhibition of human SH-4 cell growth in a cell viability assay.

[16] = system: SW-620; settings: Homo sapiens, SW-620;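 also: growth inhibition of human SW-620 cells, measured by a cell viability assay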
Description: SANGER: Inhibition of human SW620 cell growth in a cell viability assay.

[17] = system: NB69; settings: Homo sapiens, NB69;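 also: growth inhibition of NB69 cells, determined by a cell viability assay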
Description: SANGER: Inhibition of human NB69 cell growth in a cell viability assay.

[18] = system: MZ1-PC; settings: Homo sapiens, MZ1-PC;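 also: cell viability assay measuring growth inhibition of human MZ1-PC cells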
Description: SANGER: Inhibition of human MZ1-PC cell growth in a cell viability assay.

[19] = system: G-401; settings: Homo sapiens, G-401
Description: SANGER: Inhibition of human G-401 cell growth in a cell viability assay.

[20] = system: C2BBe1; settings: Homo sapiens, C2BBe1;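 also: growth inhibition of C2BBe1 cells, read out through a viability assay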
Description: SANGER: Inhibition of human C2BBe1 cell growth in a cell viability assay.

[21] = system: ES1; settings: Homo sapiens, ES1;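 also: growth inhibition of ES1 cells, read out with a cell viability assay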
Description: SANGER: Inhibition of human ES1 cell growth in a cell viability assay.

[22] = system: CP66-MEL; settings: Homo sapiens, CP66-MEL;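 also: growth inhibition of CP66-MEL cells determined in a cell viability assay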
Description: SANGER: Inhibition of human CP66-MEL cell growth in a cell viability assay.

[23] = system: Lu-65; settings: Homo sapiens, Lu-65;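 also: growth inhibition of Lu-65 cancer cells, read out by a cell viability assay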
Description: SANGER: Inhibition of human LU-65 cell growth in a cell viability assay.

[24] = system: CAL-120; settings: Homo sapiens, CAL-120;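 also: cell growth inhibition, read out as cell viability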
Description: SANGER: Inhibition of human CAL-120 cell growth in a cell viability assay.

[25] = system: RD; settings: Homo sapiens, RD
Description: SANGER: Inhibition of human RD cell growth in a cell viability assay.

[26] = system: NB6; settings: Homo sapiens, NB6;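 also: growth inhibition of NB6 cells, read out by a cell viability assay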
Description: SANGER: Inhibition of human NB6 cell growth in a cell viability assay.

[27] = system: DMS-79; settings: Homo sapiens, DMS-79;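 also: growth inhibition measured with a cell viability assay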
Description: SANGER: Inhibition of human DMS-79 cell growth in a cell viability assay.

[28] = system: MDA-MB-231; settings: Homo sapiens, MDA-MB-231
Description: SANGER: Inhibition of human MDA-MB-231 cell growth in a cell viability assay.

[29] = system: NCI-H2087; settings: Homo sapiens, NCI-H2087;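 also: growth inhibition determined with a cell viability readout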
Description: SANGER: Inhibition of human NCI-H2087 cell growth in a cell viability assay.

[30] = system: SNU-387; settings: Homo sapiens, SNU-387
Description: SANGER: Inhibition of human SNU-387 cell growth in a cell viability assay.

[31] = system: NCI-H1755; settings: Homo sapiens, NCI-H1755;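 also: cell viability readout used to measure growth inhibition of NCI-H1755 cells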
Description: SANGER: Inhibition of human NCI-H1755 cell growth in a cell viability assay.

[32] = system: MKN-1; settings: Homo sapiens, MKN-1;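 also: growth inhibition of human MKN1 cells, read out by a cell viability measurement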
Description: SANGER: Inhibition of human MKN1 cell growth in a cell viability assay.

[33] = system: Ca-Ski; settings: Homo sapiens, Ca-Ski;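 also: cell viability assay measuring inhibition of Ca-Ski cell growth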
Description: SANGER: Inhibition of human Ca-Ski cell growth in a cell viability assay.

[34] = system: HCC38; settings: Homo sapiens, HCC38;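 also: cell viability assay on the human HCC38 cell line, with IC50 marking the concentration that inhibits cell growth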
Description: SANGER: Inhibition of human HCC38 cell growth in a cell viability assay.

[35] = system: HL-60; settings: Homo sapiens, HL-60;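 also: growth inhibition of human HL-60 cells, read out with a cell viability assay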
Description: SANGER: Inhibition of human HL-60 cell growth in a cell viability assay.

[36] = system: HOS; settings: Homo sapiens, HOS;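 also: growth inhibition of human HOS cells, read out with a cell viability assay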
Description: SANGER: Inhibition of human HOS cell growth in a cell viability assay.

[37] = system: PFSK-1; settings: Homo sapiens, PFSK-1;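 also: cell viability assay measuring how strongly compounds suppress growth of human PFSK-1 cells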
Description: SANGER: Inhibition of human PFSK-1 cell growth in a cell viability assay.

[38] = system: VM-CUB-1; settings: Homo sapiens, VM-CUB-1;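 also: cell viability assay measuring growth inhibition of the human VM-CUB-1 cell line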
Description: SANGER: Inhibition of human VM-CUB-1 cell growth in a cell viability assay.

[39] = system: JEG-3; settings: Homo sapiens, JEG-3;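 also: growth inhibition of human JEG-3 cells, read out with a cell viability assay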
Description: SANGER: Inhibition of human JEG-3 cell growth in a cell viability assay.

[40] = system: DU-4475; settings: Homo sapiens, DU-4475
Description: SANGER: Inhibition of human DU-4475 cell growth in a cell viability assay.

[41] = system: LB996-RCC; settings: Homo sapiens, LB996-RCC
Description: SANGER: Inhibition of human LB996-RCC cell growth in a cell viability assay.

[42] = system: HCC2218; settings: Homo sapiens, HCC2218;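 also: cell viability assay read-out, with IC50 given as the concentration that inhibits growth of the cell line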
Description: SANGER: Inhibition of human HCC2218 cell growth in a cell viability assay.

[43] = system: NCI-H1882; settings: Homo sapiens, NCI-H1882;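 also: growth inhibition of the cell line, determined with a viability assay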
Description: SANGER: Inhibition of human NCI-H1882 cell growth in a cell viability assay.

[44] = system: SNU-16; settings: Homo sapiens, SNU-16;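 also: growth inhibition of human SNU-16 cells, determined with a cell viability readout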
Description: SANGER: Inhibition of human NCI-SNU-16 cell growth in a cell viability assay.

[45] = system: SNU-C1; settings: Homo sapiens, SNU-C1;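 also: growth inhibition of SNU-C1 human cells, read out by a cell viability assay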
Description: SANGER: Inhibition of human SNU-C1 cell growth in a cell viability assay.

[46] = system: LU-165; settings: Homo sapiens, LU-165
Description: SANGER: Inhibition of human LU-165 cell growth in a cell viability assay.

Structure (SMILES)	IC50 [1] [µM]	IC50 [2] [µM]	IC50 [4] [µM]	IC50 [5] [µM]	IC50 [6] [µM]	IC50 [8] [µM]	IC50 [9] [µM]	IC50 [10] [µM]	IC50 [11] [µM]	IC50 [12] [µM]	IC50 [13] [µM]	IC50 [15] [µM]	IC50 [17] [µM]	IC50 [18] [µM]	IC50 [19] [µM]	IC50 [20] [µM]	IC50 [21] [µM]	IC50 [23] [µM]	IC50 [25] [µM]	IC50 [26] [µM]	also measured
CS(=O)(=O)c1ccc(C(=O)Nc2ccc(Cl)c(-c3ccccn3)c2)c(Cl)c1 [VISMODEGIB]	> 10	> 10	> 10	> 10	> 10	> 10	> 10	> 10	> 10	> 10	> 10	> 10	> 10	> 10	> 10	> 10	> 10	> 10	> 10	> 10	IC50 [3]: > 10 µM; IC50 [7]: > 10 µM; IC50 [14]: > 10 µM; IC50 [16]: > 10 µM; IC50 [22]: > 10 µM; IC50 [24]: > 10 µM; IC50 [27]: > 10 µM; IC50 [28]: > 10 µM; IC50 [29]: > 10 µM; IC50 [30]: > 10 µM; IC50 [31]: > 10 µM; IC50 [32]: > 10 µM; IC50 [33]: > 10 µM; IC50 [34]: > 10 µM; IC50 [35]: > 10 µM; IC50 [36]: > 10 µM; IC50 [37]: > 10 µM; IC50 [38]: > 10 µM; IC50 [39]: > 10 µM
Cn1cnc2c(F)c(Nc3ccc(Br)cc3Cl)c(C(=O)NOCCO)cc21 [SELUMETINIB]	> 4	> 4	0.107	> 4	3.33	> 4	> 4	> 4	0.139	0.456	> 4	0.166	1.05	3.32	> 4	0.273	> 4	> 4	> 4	> 4	IC50 [40]: 0.0337 µM; IC50 [41]: 3.95 µM; IC50 [3]: > 4 µM; IC50 [7]: > 4 µM; IC50 [14]: 0.74 µM; IC50 [16]: 0.302 µM; IC50 [42]: 2.48 µM; IC50 [24]: > 4 µM; IC50 [28]: > 4 µM; IC50 [29]: 1.38 µM; IC50 [30]: > 4 µM; IC50 [31]: > 4 µM; IC50 [33]: > 4 µM; IC50 [34]: > 4 µM; IC50 [35]: 0.0246 µM; IC50 [36]: > 4 µM; IC50 [37]: > 4 µM; IC50 [38]: 3.97 µM; IC50 [39]: > 4 µM
CC(C)c1ccccc1Cc1cc(C(=O)Nc2ccc(S(=O)(=O)c3ccccc3C(C)(C)C)cc2)c(O)c(O)c1O	0.629	0.185	0.0218	0.238	0.117	0.398	0.0884	0.359	0.0882		0.691	0.227	0.877	0.635	0.46	0.266	0.13		0.96	2.49	IC50 [41]: 0.25 µM; IC50 [3]: 0.606 µM; IC50 [7]: 0.213 µM; IC50 [16]: 0.961 µM; IC50 [22]: 1.2 µM; IC50 [24]: 0.479 µM; IC50 [28]: 0.108 µM; IC50 [29]: 0.575 µM; IC50 [30]: 0.248 µM; IC50 [31]: 1.62 µM; IC50 [32]: 0.623 µM; IC50 [34]: 0.676 µM; IC50 [36]: 0.0847 µM; IC50 [37]: 0.177 µM; IC50 [39]: 0.736 µM
CN(C)C(=N)NC(=N)N [METFORMIN]	6170	9060	6420	> 20000	> 20000	> 20000	> 20000	16900	8840	> 20000	> 20000	> 20000	> 20000		1590	11800	> 20000	511	> 20000		IC50 [40]: 3840 µM; IC50 [42]: 701 µM; IC50 [27]: 5970 µM; IC50 [29]: > 20000 µM; IC50 [30]: > 20000 µM; IC50 [31]: > 20000 µM; IC50 [33]: > 20000 µM; IC50 [35]: > 20000 µM; IC50 [36]: > 20000 µM; IC50 [37]: > 20000 µM
C#Cc1cccc(Nc2ncnc3cc(OCCOC)c(OCCOC)cc23)c1 [ERLOTINIB]								> 2		> 2	> 2	> 2	> 2	> 2		> 2	> 2	> 2		> 2	IC50 [40]: > 2 µM; IC50 [41]: 0.402 µM; IC50 [43]: > 2 µM; IC50 [44]: > 2 µM; IC50 [45]: > 2 µM; IC50 [42]: > 2 µM; IC50 [22]: > 2 µM; IC50 [27]: > 2 µM; IC50 [46]: > 2 µM; IC50 [35]: > 2 µM

— ChEMBL document CHEMBL1201861, “Genomics of Drug Sensitity in Cancer screening data, Wellcome Trust Sanger Institute”
